According to patent publication US20100168084A1, “Therapeutic compounds and related methods of use” (priority 2008, published 2010):
Where two headings read alike, the source gives them in different places.

Target: T1, sirtuin protein (Homo sapiens, UniProt Q96EB6)
T1 sequence (Q96EB6 2-747 limits assumed): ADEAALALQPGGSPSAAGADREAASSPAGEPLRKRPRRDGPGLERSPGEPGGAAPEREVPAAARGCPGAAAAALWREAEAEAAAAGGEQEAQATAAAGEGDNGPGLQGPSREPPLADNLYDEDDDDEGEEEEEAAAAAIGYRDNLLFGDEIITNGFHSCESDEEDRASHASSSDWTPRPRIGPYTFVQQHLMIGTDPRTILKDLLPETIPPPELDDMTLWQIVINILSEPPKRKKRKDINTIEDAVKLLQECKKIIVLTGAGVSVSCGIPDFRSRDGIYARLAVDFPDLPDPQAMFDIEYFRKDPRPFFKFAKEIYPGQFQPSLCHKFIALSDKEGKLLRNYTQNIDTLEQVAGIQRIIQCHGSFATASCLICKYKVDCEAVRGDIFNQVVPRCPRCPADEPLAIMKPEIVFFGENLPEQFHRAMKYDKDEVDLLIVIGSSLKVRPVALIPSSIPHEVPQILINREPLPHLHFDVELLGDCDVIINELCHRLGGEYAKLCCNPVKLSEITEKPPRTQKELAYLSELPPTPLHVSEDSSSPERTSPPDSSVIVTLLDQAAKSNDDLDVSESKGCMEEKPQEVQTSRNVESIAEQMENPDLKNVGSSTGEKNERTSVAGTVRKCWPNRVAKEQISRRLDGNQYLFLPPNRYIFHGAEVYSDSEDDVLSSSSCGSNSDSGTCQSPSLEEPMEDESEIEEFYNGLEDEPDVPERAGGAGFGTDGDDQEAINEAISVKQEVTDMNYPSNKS
Assay: MS assay (IC50 MS ASSAY / ED50 MS / FOLD ACTIVATION MS)
Assay type: biochemical
Set-up: scale not given here

[1] = Table 4, class symbols A′, A, B, D, NA, legend not given
[2] = class symbols (A′, A, B, D, NA), no legend given
[3] = MS assay, class symbols, key not given
[4] = Table 4, class symbols A′, A, B, C, NA, legend not given

O=C(Nc1ccccc1-c1cn2c(CN3CCNCC3)csc2n1)c1cc(-c2ccccc2)ncn1 [Compound 625]
A′: ED50 MS ASSAY | ED50 MS ASSAY (Table 4) | ED50 MS ASSAY (Table 4, class symbols) | ED50 MS ASSAY [1] | ED50 MS ASSAY [2]

O=C(Nc1ccccc1-c1cn2c(CN3CCN(Cc4ccccc4)CC3=O)csc2n1)c1cnc2ccccc2n1 [Compound 628]
A′: ED50 MS ASSAY | ED50 MS ASSAY (Table 4) | ED50 MS ASSAY (Table 4, class symbols) | ED50 MS ASSAY [1] | ED50 MS ASSAY [2]

COc1cc(C(=O)Nc2ccccc2-c2nc3ncccc3o2)ccc1CN1CCOCC1 [Compound 631]
A′: ED50 MS ASSAY | ED50 MS ASSAY (Table 4) | ED50 MS ASSAY (Table 4, class symbols) | ED50 MS ASSAY [1] | ED50 MS ASSAY [2]

O=C(Nc1ccccc1-c1cn2c(CN3CCNCC3)csc2n1)c1cnc2ccccc2c1 [Compound 645]
A′: ED50 MS ASSAY | ED50 MS ASSAY (Table 4) | ED50 MS ASSAY (Table 4, class symbols) | ED50 MS ASSAY [1] | ED50 MS ASSAY [2]

CN(C)CCOCc1csc2nc(-c3ccccc3NC(=O)c3cnc4ccccc4n3)cn12 [Compound 647]
A′: ED50 MS ASSAY | ED50 MS ASSAY (Table 4) | ED50 MS ASSAY (Table 4, class symbols) | ED50 MS ASSAY [1] | ED50 MS ASSAY [2]

O=C(Nc1ccccc1-c1cn2c(CO)csc2n1)c1cnc2ccccc2n1 [Compound 648]
A′: ED50 MS ASSAY | ED50 MS ASSAY (Table 4) | ED50 MS ASSAY (Table 4, class symbols) | ED50 MS ASSAY [1] | ED50 MS ASSAY [2]

CN1CCN(C(=O)Cc2csc3nc(-c4ccccc4NC(=O)c4cnc5ccccc5n4)cn23)CC1 [Compound 649]
A′: ED50 MS ASSAY | ED50 MS ASSAY (Table 4) | ED50 MS ASSAY (Table 4, class symbols) | ED50 MS ASSAY [1] | ED50 MS ASSAY [2]

CC(=O)N1CCN(Cc2csc3nc(-c4ccccc4NC(=O)c4cnc5ccccc5n4)cn23)CC1 [Compound 651]
A′: ED50 MS ASSAY | ED50 MS ASSAY (Table 4) | ED50 MS ASSAY (Table 4, class symbols) | ED50 MS ASSAY [1] | ED50 MS ASSAY [2]

COc1cc(NC(=S)Nc2cc(-c3nc4ncccc4o3)ccn2)cc(OC)c1 [Compound 661]
A′: ED50 MS ASSAY | ED50 MS ASSAY (Table 4) | ED50 MS ASSAY (Table 4, class symbols) | ED50 MS ASSAY [1] | ED50 MS ASSAY [2]

O=C(Nc1ccccc1-c1cn2c(CNCC(O)CO)csc2n1)c1cnc2ccccc2n1 (stereo not shown) [Compound 676]
A′: ED50 MS ASSAY | ED50 MS ASSAY (Table 4) | ED50 MS ASSAY (Table 4, class symbols) | ED50 MS ASSAY [1] | ED50 MS ASSAY [2]

O=C(Nc1ccccc1-c1cn2c(CCN3CCNCC3)csc2n1)c1cnc2ccccc2n1 [Compound 680]
A′: ED50 MS ASSAY | ED50 MS ASSAY (Table 4) | ED50 MS ASSAY (Table 4, class symbols) | ED50 MS ASSAY [1] | ED50 MS ASSAY [2]

N#Cc1cccc(C(=O)Nc2ccccc2-c2nc3cc(CN4CCOCC4)cnc3s2)c1 [Compound 685]
A′: ED50 MS ASSAY | ED50 MS ASSAY [3] | ED50 MS ASSAY (Table 4) | ED50 MS ASSAY [4]

O=C(Nc1ccccc1-c1cn2c(CN3CCNCC3)csc2n1)c1cc(F)cc(F)c1 [Compound 695]
A′: ED50 MS ASSAY | ED50 MS ASSAY [3] | ED50 MS ASSAY (TABLE 4) | ED50 MS ASSAY (Table 4) | ED50 MS ASSAY [4]

O=C(Nc1ccccc1-c1cn2c(CN3CCNCC3)csc2n1)c1cccc(OC(F)(F)F)c1 [Compound 698]
A′: ED50 MS ASSAY | ED50 MS ASSAY [3] | ED50 MS ASSAY (TABLE 4) | ED50 MS ASSAY (Table 4) | ED50 MS ASSAY [4]

Cc1csc2nc(-c3ccccc3NC(=O)c3cnc4ccccc4n3)cn12 [Compound 707]
A′: ED50 MS ASSAY | ED50 MS ASSAY [3] | ED50 MS ASSAY (TABLE 4) | ED50 MS ASSAY (Table 4) | ED50 MS ASSAY [4]

O=C(Nc1ccccc1-c1cn2c(CN3CCNCC3)csc2n1)c1ccc(-c2ccccc2)cc1 [Compound 708]
A′: ED50 MS ASSAY | ED50 MS ASSAY [3] | ED50 MS ASSAY (TABLE 4) | ED50 MS ASSAY (Table 4) | ED50 MS ASSAY [4]

O=C(Nc1ccccc1-c1cn2c(CN3CCNCC3)csc2n1)c1cccc(-c2ccccc2)c1 [Compound 710]
A′: ED50 MS ASSAY | ED50 MS ASSAY [3] | ED50 MS ASSAY (TABLE 4) | ED50 MS ASSAY (Table 4) | ED50 MS ASSAY [4]

O=C(Nc1ccccc1-c1cn2c(CN3CCSC3)csc2n1)c1cnc2ccccc2n1 [Compound 715]
A′: ED50 MS ASSAY | ED50 MS ASSAY [3] | ED50 MS ASSAY (TABLE 4) | ED50 MS ASSAY (Table 4) | ED50 MS ASSAY [4]

NC1CCN(Cc2csc3nc(-c4ccccc4NC(=O)c4cnc5ccccc5n4)cn23)CC1 [Compound 716]
A′: ED50 MS ASSAY | ED50 MS ASSAY [3] | ED50 MS ASSAY (TABLE 4) | ED50 MS ASSAY (Table 4) | ED50 MS ASSAY [4]

COc1cc(OC)cc(C(=O)Nc2ccccc2-c2nc3cc(CN(C)C)cnc3s2)c1 [Compound 722]
A′: ED50 MS ASSAY | ED50 MS ASSAY [3] | ED50 MS ASSAY (TABLE 4) | ED50 MS ASSAY (Table 4) | ED50 MS ASSAY [4]

O=C(Nc1ccccc1-c1nc2cc(CN3CCOCC3)cnc2s1)c1ccc2ccccc2n1 [Compound 724]
A′: ED50 MS ASSAY | ED50 MS ASSAY [3] | ED50 MS ASSAY (TABLE 4) | ED50 MS ASSAY (Table 4) | ED50 MS ASSAY [4]

Cc1ccc(C(=O)Nc2ccccc2-c2nc3ccc(CN4CCNCC4)nc3s2)cc1C [Compound 727]
A′: ED50 MS ASSAY | ED50 MS ASSAY [3] | ED50 MS ASSAY (TABLE 4) | ED50 MS ASSAY (Table 4) | ED50 MS ASSAY [4]

O=C(Nc1ccccc1-c1nc2ccc(CN3CCNCC3)nc2s1)c1ccc2ccccc2n1 [Compound 729]
A′: ED50 MS ASSAY | ED50 MS ASSAY [3] | ED50 MS ASSAY (TABLE 4) | ED50 MS ASSAY (Table 4) | ED50 MS ASSAY [4]

O=C(Nc1ccccc1-c1nc2cc(CN3CCNCC3)cnc2s1)c1cc(-c2ccccc2)no1 [Compound 732]
A′: ED50 MS ASSAY | ED50 MS ASSAY [3] | ED50 MS ASSAY (TABLE 4) | ED50 MS ASSAY (Table 4) | ED50 MS ASSAY [4]

O=C(Nc1ccccc1-c1cn2c(CN3CCNCC3)csc2n1)c1cccc(-c2cc[nH]n2)c1 [Compound 733]
A′: ED50 MS ASSAY | ED50 MS ASSAY [3] | ED50 MS ASSAY (TABLE 4) | ED50 MS ASSAY (Table 4) | ED50 MS ASSAY [4]

COc1ccc(-c2cc(C(=O)Nc3ccccc3-c3cn4c(CN5CCNCC5)csc4n3)[nH]n2)cc1 [Compound 735]
A′: ED50 MS ASSAY | ED50 MS ASSAY [3] | ED50 MS ASSAY (TABLE 4) | ED50 MS ASSAY (Table 4) | ED50 MS ASSAY [4]

COc1ccc(-c2ccc(C(=O)Nc3ccccc3-c3cn4c(CN5CCNCC5)csc4n3)o2)cc1 [Compound 736]
A′: ED50 MS ASSAY | ED50 MS ASSAY [3] | ED50 MS ASSAY (TABLE 4) | ED50 MS ASSAY (Table 4) | ED50 MS ASSAY [4]

O=C(Nc1ccccc1-c1cn2c(CN3CCNCC3)csc2n1)c1cccc(SC(F)F)c1 [Compound 737]
A′: ED50 MS ASSAY | ED50 MS ASSAY [3] | ED50 MS ASSAY (TABLE 4) | ED50 MS ASSAY (Table 4) | ED50 MS ASSAY [4]
